Consider 3 compounds from patent publication US9073928B2, “Tosylate salt of cyclopropanecarboxylic acid 4-(6-chloro-3-methyl-4, 10-dihydro-3H-2,3,4,9-tetrabenzo[f]azulene-9-carbonyl)-2-fluorobenzylamide” (Vantia Limited, priority 2010, dated 2015).

A short description of one series: physchem. The following applies: 37 °C, water, thermodynamic from solid.
Another series addresses V1a vasopressin receptor (Homo sapiens, UniProt P37288). The following applies: dysmenorrhoea patients, oral; cited from earlier work.
Series [1] deals with T1, cloned human V1a receptor (Homo sapiens, UniProt P37288).
T1 construct: expressed in transfected cells
T1 sequence (P37288 whole entry): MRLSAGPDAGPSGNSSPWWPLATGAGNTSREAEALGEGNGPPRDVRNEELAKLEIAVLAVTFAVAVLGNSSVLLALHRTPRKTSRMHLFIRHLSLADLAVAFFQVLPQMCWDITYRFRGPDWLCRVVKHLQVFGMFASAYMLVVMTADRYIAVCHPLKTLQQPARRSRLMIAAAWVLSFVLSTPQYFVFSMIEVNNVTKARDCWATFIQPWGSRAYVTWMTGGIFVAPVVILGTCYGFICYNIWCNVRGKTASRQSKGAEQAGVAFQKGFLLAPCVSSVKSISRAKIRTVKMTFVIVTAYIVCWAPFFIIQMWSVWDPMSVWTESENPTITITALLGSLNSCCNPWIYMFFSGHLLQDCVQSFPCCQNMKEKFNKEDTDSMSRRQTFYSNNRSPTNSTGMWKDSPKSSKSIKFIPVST
Put plainly: In vitro functional calcium mobilisation assay (FLIPR), antagonist activity. Particulars: read-out: mean fpKi (Human V1a) (converted). The format is cell-based. An excerpt:
The ability of the tosylate salt of the invention to inhibit the vasopressin V1a receptor may be determined using the in vitro functional calcium mobilisation assay (FLIPR) described in PCT/DK2005/000540. This assay measures antagonist activity at a cloned human V1a receptor.
(Calcium flux is commonly read through the fluorescence of an indicator in the cells.)

Series [2] can be described thus: Thermodynamic solubility in water (spectrophotometric method).
Experimental: (§1) A spectrophotometric method was used. Standards were prepared in methanol (including a methanol blank) and the absorbance measured at 260 and 270 nm, from which a calibration line was generated for each wavelength. The test compound was incubated with agitation in water at 37° C. for 24 h before removal of non-soluble material by centrifugation. The supernatant was analysed against the calibration lines (after subtraction of the water blank response) and the mean of the determinations at the two wavelengths was reported.
A short description of series [3]: Oral availability: plasma exposure in rats after oral dosing of suspensions. The format is in vivo. The following applies: rat, suspension in 0.5% HPMC, 10 mg/kg p.o.
Text: The plasma exposure in rats following dosing with the cyclopropanecarboxylic acid 4-(6-chloro-3-methyl-4,10-dihydro-3H-2,3,4,9-tetraazabenzo[f]azulene-9-carbonyl)-2-fluoro-benzylamide para-toluenesulphonate (“Tosylate”) has been examined in comparison with the corresponding free base, cyclopropanecarboxylic acid 4-(6-chloro-3-methyl-4,10-dihydro-3H-2,3,4,9-tetraazabenzo[f]azulene-9-carbonyl)-2-fluoro-benzylamide (“Free Base”).

≈ marks a conversion by molar mass, not a printed value.

Chain of V1a vasopressin receptor (P37288 whole entry): as above
Experimental for physchem: as §1

The solubility is the dissolved amount per volume that the medium holds. A high value points to much dissolved substance. `Cn1ncc2c1Nc1cc(Cl)ccc1N(C(=O)c1ccc(CNC(=O)C3CC3)c(F)c1)C2` [Free base, cyclopropanecarboxylic acid 4-(6-chloro-3-methyl-4,10-dihydro-3H-2,3,4,9-tetraazabenzo[f]azulene-9-carbonyl)-2-fluoro-benzylamide, reference compound] had a solubility at 24 h in the series “physchem” of 5 µg/mL (≈ 11 µM).

With `COc1ccc(S(=O)(=O)N2c3ccc(Cl)cc3[C@](O)(c3ccccc3Cl)[C@@H]2C(=O)N2CCC[C@H]2C(N)=O)cc1OC` [SR49059], the “Pain and additional pain-killer use compared to placebo” value on V1a vasopressin receptor is on record as “dose-related decrease in the amount of additional pain-killer taken”.

As usually defined, the AUC(0-t) is exposure summed from dosing to a finite time, without extrapolation to infinity. In general, Cmax refers to the peak of the concentration-time curve. Regarding `Cc1ccc(S(=O)(=O)O)cc1.Cn1ncc2c1Nc1cc(Cl)ccc1N(C(=O)c1ccc(CNC(=O)C3CC3)c(F)c1)C2` [Tosylate, cyclopropanecarboxylic acid 4-(6-chloro-3-methyl-4,10-dihydro-3H-2,3,4,9-tetraazabenzo[f]azulene-9-carbonyl)-2-fluoro-benzylamide para-toluenesulphonate], the Ki in series [1] was 3.16 nM. Besides, the “Solubility in water relative to known free base” value in series [2] stood at 8 ×. The solubility at 24 h in series [2] (37 °C, thermodynamic from solid) is 40 µg/mL. In series [3] (in vivo, po), this compound showed an AUC(0-t) of 670 ng·h/mL and a peak concentration (Cmax) of 209 ng/mL. Besides, the “Plasma exposure / absorption after oral dosing (in words)” value in series [3] is reported as “significant improvements in plasma exposure”.
